Test results reported in patent US20230416329A1, “A PEPTIDE WITH DISULFIDE BONDS AND INHIBITORY ACTIVITY AGAINST SERINE PROTEASES, DERIVED HYBRID PEPTIDES THEREOF, AND USES THEREOF” (INSTITUTE OF MATERIA MEDICA , CHINESE ACADEMY OF MEDICAL …, priority 2020, published 2023).
pIC50, pKi: −log10 of the molar value. One block for each compound: values may come before it. Bridge positions count the residues as written; N and C are the ends. Peptide text beside a SMILES is read from it.

Biological target: α-chymotrypsin (Bos taurus, UniProt P00766)
Assay: Chymotrypsin inhibitory activity of peptides (AAPFpNA hydrolysis; IC50, Ki, residual activity)
Type: biochemical
Conditions: for pKi: Ki=IC50/(1+S/Km), Km 0.38 mM; for pIC50: chymotrypsin 30 nM, AAPFpNA 0.5 mM
Protocol: The inhibition constants of various synthetic active peptide inhibitors (molecular scaffolds) against seine proteases were measured. The substrates N-succinyl-Ala-Ala-Pro-Phe-p-nitroaniline (AAPFpNA), Nα—Benzoyl-L-arginine-4-nitroaniline hydrochloride (BApNA) and N-succinyl-[…] (AAApNA) are used in competitive binding reaction to determine the inhibitory activities against α-chymotrypsin, bovine trypsin, and porcine pancreatic elastase, respectively. Experiments for α-chymotrypsin and bovine trypsin inhibition were measured in 20 mM CaCl2, 50 mM Tris-HCl buffer (pH 7.8), and that for porcine elastase inhibition was measured in 50 mM Tris-HCl buffer (pH 8.0). The concentration of the peptide was measured using optical density (OD) at 280 nm. The Michaelis constant (Km) of the enzyme hydrolysis substrate is calculated from the initial rate of substrate hydrolysis at 405 nm. The absorbance value of the substrate was measured at 405 nm after complete hydrolysis. All data were processed using nonlinear regression.
• (1) Added a total 190 μL of reaction buffer (20 mM CaCl2, 50 mM Tris-HCl (pH 7.8)) into the 96 well plate, followed by preheating at 37° C. for 15 min. Then added 2 μL of different concentrations of substrates (p-Nitroanilide, pNA, 0.5% in DMSO), and mixed by centrifugation at 500 rpm for 1 min. Finally, the plate was incubated at 37° C. for 20 min, and the absorbance value at 405 nm was measured. In the 200 μL of reaction system, the final concentrations of pNA were 0, 0.025, 0.05, 0.075, 0.1, 0.125, 0.15, 0.25, and 0.3 mM, respectively. Make three repetitions for each concentration and plot the OD405 m value with pNA concentration to obtain the standard curve. • (2) Added a total 190 μL of reaction buffer (20 mM CaCl2, 50 mM Tris-HCl (pH 7.8)) and 8 μL of 0.75 μM chymotrypsin into the 96 well plate, followed by preheating at 37° C. for 5 min. Then added 2 μL of different concentrations of substrates (AAPFpNA, dissolved in DMSO), and mixed by centrifugation at 500 rpm for 1 min. Finally, the plate was incubated at 37° C. for 20 min, and the absorbance value at 405 nm was measured. In the 200 μL of reaction system, the final concentrations of AAPFpNA were 0, 0.125, 0.25, 0.285, 0.33, 0.4, and 0.5 mM, respectively. Make three repetitions for each concentration and plot the OD405 nm value with time to obtain the corresponding curve. Divide the slope of the curve by the slope of the standard curve and the enzyme concentration to obtain the initial velocity V0 (mM/(min*mM protein). Plot the initial velocity V0 with the concentration of substrate AAPFpNA using Prism software, and the Michaelis constant Km value of chymotrypsin hydrolyzing AAPFpNA was obtained.
• (1) Added a total 190 μL of reaction buffer (20 mM CaCl2, 50 mM Tris-HCl (pH 7.8)), different concentrations of anti-chymorypsin peptides (CHs) into the pre-cold 96 well plate, followed by preheating at 37° C. for 5 min and centrifugated at 500 rpm for 1 min and allowed to stand for 4 minutes. Then added 8 μL of 750 nM chymotrypsin and incubated at 37° C. for 10 min, and centrifugated at 500 rpm for 1 min and allowed to stand for 9 minutes. Finally, added 2 μL of 50 mM AAPFpNA, and mixed by centrifugation at 500 rpm for 1 min. The plate was incubated at 37° C. for 90 min, and the absorbance value at 405 nm was measured. Three repetitions were made, and only reaction buffer and substrate were added in the blank control as the minimum absorption value (Min OD405 nm); Only reaction buffer, enzyme and substrate were added in the negative control as the maximum absorption value (Max OD405). • (2) In the 200 μL of reaction system, the final concentrations of chymotrypsin and AAPFpNA were 30 nM and 0.5 mM, respectively. • (3) Data statistics
Residual activity of enzyme (%)=(1−(Max OD405 nm−Sample OD405 nm)/(Max OD405 nm−Min OD405 nm))*100 […]

Structure (SMILES): CC[C@H](C)[C@@H]1NC(=O)[C@@H]2CCCN2C(=O)[C@@H]2CCCN2C(=O)[C@H]([C@@H](C)CC)NC(=O)[C@H](CO)NC(=O)[C@H](Cc2ccccc2)NC(=O)[C@H]([C@@H](C)O)NC(=O)[C@@H](NC(=O)[C@@H](NC(=O)CN)[C@@H](C)O)CSSC[C@@H](C(=O)N[C@@H](CC(N)=O)C(=O)N2CCC[C@H]2C(=O)N[C@@H](CC(N)=O)C(=O)O)NC1=O [CH25] (H-GTCTFSIPPICNPN-OH; disulfide 3-11)
pKi: 6.92
pIC50: 6.55

Structure (SMILES): CC[C@H](C)[C@@H]1NC(=O)[C@@H]2CCCN2C(=O)[C@@H]2CCCN2C(=O)[C@H]([C@@H](C)CC)NC(=O)[C@H](CO)NC(=O)[C@H](Cc2ccccc2)NC(=O)[C@H]([C@@H](C)O)NC(=O)[C@@H](NC(=O)[C@@H](NC(=O)CN)[C@@H](C)O)CSSC[C@@H](C(=O)N[C@@H](CC(N)=O)C(=O)O)NC1=O [CH26] (H-GTCTFSIPPICN-OH; disulfide 3-11; C-terminus assumed)
inhibitory activity against chymotrypsin (in words): good inhibitory activity

Structure (SMILES): CC[C@H](C)[C@@H]1NC(=O)[C@H](CO)NC(=O)[C@H](Cc2ccc(O)cc2)NC(=O)[C@H]([C@@H](C)O)NC(=O)[C@H](C)NC(=O)[C@H](Cc2ccc(O)cc2)NC(=O)CNC(=O)[C@@H](N)CSSC[C@@H](C(=O)N[C@@H](Cc2ccc(O)cc2)C(=O)NCC(=O)O)NC(=O)[C@H](CCC(N)=O)NC(=O)[C@@H]2CCCN2C(=O)[C@@H]2CCCN2C1=O [CH30] (H-CGYATYSIPPQCYG-OH; disulfide 1-12)
pIC50: < 4.30

Structure (SMILES): CC[C@H](C)[C@@H]1NC(=O)[C@H](CO)NC(=O)[C@H](Cc2ccc(O)cc2)NC(=O)[C@H]([C@@H](C)O)NC(=O)[C@@H](NC(=O)[C@@H](N)Cc2ccccc2)CSSC[C@@H](C(=O)N[C@@H](Cc2ccc(O)cc2)C(=O)O)NC(=O)[C@H](CCC(N)=O)NC(=O)[C@@H]2CCCN2C(=O)[C@@H]2CCCN2C1=O [CH33] (H-FCTYSIPPQCY-OH; disulfide 2-10; C-terminus assumed)
inhibitory activity against chymotrypsin (in words): good inhibitory activity

Structure (SMILES): CC[C@H](C)[C@@H]1NC(=O)[C@H](CO)NC(=O)[C@H](Cc2ccc(O)cc2)NC(=O)[C@H]([C@@H](C)O)NC(=O)[C@@H](NC(=O)[C@@H](N)Cc2ccccc2)CSSC[C@@H](C(=O)N[C@@H](Cc2ccc(O)cc2)C(=O)N[C@@H](C)C(=O)O)NC(=O)[C@H](CCC(N)=O)NC(=O)[C@@H]2CCCN2C(=O)[C@@H]2CCCN2C1=O [CH34] (H-FCTYSIPPQCYA-OH; disulfide 2-10; N-terminus and C-terminus assumed)
inhibitory activity against chymotrypsin (in words): good inhibitory activity

Results, then the compound that gave them:

inhibitory activity against chymotrypsin (in words): good inhibitory activity
pKi: 5.58
pIC50: 5.21
Structure (SMILES): CC[C@H](C)[C@@H]1NC(=O)[C@H](CO)NC(=O)[C@H](Cc2ccc(O)cc2)NC(=O)[C@H]([C@@H](C)O)NC(=O)[C@H](C)NC(=O)[C@H](CO)NC(=O)CNC(=O)[C@@H](N)CSSC[C@@H](C(=O)N[C@@H](Cc2ccccc2)C(=O)NCC(=O)O)NC(=O)[C@H](CCCCN)NC(=O)[C@H](C)NC(=O)[C@@H]2CCCN2C1=O [CH24] (H-CGSATYSIPAKCFG-OH; disulfide 1-12; N-terminus and C-terminus assumed)

inhibitory activity against chymotrypsin (in words): certain inhibitory activity
pKi: 5.54
pIC50: 5.18
Residual activity of chymotrypsin (peptide 0.01 μM): 102.7 ± 2.4%
Residual activity of chymotrypsin (peptide 0.1 μM): 105.3 ± 0.9%
Residual activity of chymotrypsin (peptide 1 μM): 106.0 ± 0.7%
Residual activity of chymotrypsin (peptide 3 μM): 86.8 ± 1.5%
Residual activity of chymotrypsin (peptide 6 μM): 64.9 ± 3.1%
Residual activity of chymotrypsin (peptide 10 μM): 26.2 ± 2.4%
Residual activity of chymotrypsin (peptide 25 μM): 15.5 ± 0.3%
Residual activity of chymotrypsin (peptide 100 μM): 2.9 ± 0.3%
Residual activity of chymotrypsin (peptide 300 μM): 1.2 ± 0.0%
Residual activity of chymotrypsin (peptide 1000 μM): 0.7 ± 0.1%
Structure (SMILES): CC[C@H](C)[C@@H]1NC(=O)[C@@H]2CCCN2C(=O)[C@@H]2CCCN2C(=O)[C@H]([C@@H](C)CC)NC(=O)[C@H](CO)NC(=O)[C@H](Cc2ccccc2)NC(=O)[C@H]([C@@H](C)O)NC(=O)[C@H](C)NC(=O)[C@H]([C@@H](C)O)NC(=O)CNC(=O)[C@@H](N)CSSC[C@@H](C(=O)N[C@@H](CC(N)=O)C(=O)O)NC1=O [CH27] (H-CGTATFSIPPICN-OH; disulfide 1-12; N-terminus and C-terminus assumed)

pIC50: < 4.30
Structure (SMILES): CC[C@H](C)[C@@H]1NC(=O)[C@H](Cc2ccc(O)cc2)NC(=O)[C@H](C)NC(=O)[C@H](CCSC)NC(=O)[C@H](C)NC(=O)[C@H](CCC(=O)O)NC(=O)CNC(=O)[C@@H]2CCCN2C(=O)[C@@H](N)CSSC[C@@H](C(=O)N[C@@H](Cc2ccccc2)C(=O)O)NC(=O)[C@H](CO)NC(=O)[C@H](CCCNC(=N)N)NC1=O [CH28] (H-CPGEAMAYIRSCF-OH; disulfide 1-12; N-terminus and C-terminus assumed)

pIC50: < 4.30
Structure (SMILES): CC[C@H](C)[C@@H]1NC(=O)[C@H](CO)NC(=O)[C@H](Cc2ccc(O)cc2)NC(=O)[C@H]([C@@H](C)O)NC(=O)[C@H](C)NC(=O)[C@H](CO)NC(=O)CNC(=O)CNC(=O)[C@@H](N)CSSC[C@@H](C(=O)N[C@@H](Cc2ccc(O)cc2)C(=O)O)NC(=O)[C@H](CCC(N)=O)NC(=O)[C@@H]2CCCN2C(=O)[C@@H]2CCCN2C1=O [CH29] (H-CGGSATYSIPPQCY-OH; disulfide 1-13; N-terminus and C-terminus assumed)

inhibitory activity against chymotrypsin (in words): certain inhibitory activity
pKi: 5.58
pIC50: 5.22
Residual activity of chymotrypsin (peptide 0.01 μM): 107.4 ± 5.6%
Residual activity of chymotrypsin (peptide 0.1 μM): 104.3 ± 1.7%
Residual activity of chymotrypsin (peptide 1 μM): 104.8 ± 2.6%
Residual activity of chymotrypsin (peptide 8 μM): 42.5 ± 5.9%
Residual activity of chymotrypsin (peptide 10 μM): 29.5 ± 5.1%
Residual activity of chymotrypsin (peptide 25 μM): 12.7 ± 4.0%
Residual activity of chymotrypsin (peptide 100 μM): 2.6 ± 0.3%
Residual activity of chymotrypsin (peptide 300 μM): 1.0 ± 0.1%
Residual activity of chymotrypsin (peptide 1000 μM): 0.4 ± 0.0%
Structure (SMILES): CC[C@H](C)[C@@H]1NC(=O)[C@H](CO)NC(=O)[C@H](Cc2ccc(O)cc2)NC(=O)[C@H]([C@@H](C)O)NC(=O)[C@H](C)NC(=O)[C@H](C)NC(=O)CNC(=O)[C@@H](N)CSSC[C@@H](C(=O)N[C@@H](Cc2ccccc2)C(=O)O)NC(=O)[C@H](CCCCN)NC(=O)[C@H](C)NC(=O)[C@@H]2CCCN2C1=O [CH31] (H-CGAATYSIPAKCF-OH; disulfide 1-12; N-terminus and C-terminus assumed)

inhibitory activity against chymotrypsin (in words): certain inhibitory activity
pKi: 5.56
pIC50: 5.20
Residual activity of chymotrypsin (peptide 0.01 μM): 99.5 ± 0.1%
Residual activity of chymotrypsin (peptide 0.1 μM): 100.2 ± 1.9%
Residual activity of chymotrypsin (peptide 1 μM): 99.0 ± 2.0%
Residual activity of chymotrypsin (peptide 4 μM): 90.1 ± 6.1%
Residual activity of chymotrypsin (peptide 6 μM): 49.2 ± 2.7%
Residual activity of chymotrypsin (peptide 8 μM): 40.8 ± 6.0%
Residual activity of chymotrypsin (peptide 25 μM): 14.4 ± 1.1%
Residual activity of chymotrypsin (peptide 100 μM): 2.2 ± 0.2%
Residual activity of chymotrypsin (peptide 300 μM): 0.7 ± 0.1%
Structure (SMILES): CC[C@H](C)[C@@H]1NC(=O)[C@H](CO)NC(=O)[C@H](Cc2ccc(O)cc2)NC(=O)[C@H]([C@@H](C)O)NC(=O)[C@H](C)NC(=O)[C@H](C)NC(=O)CNC(=O)CNC(=O)[C@@H](N)CSSC[C@@H](C(=O)N[C@@H](Cc2ccccc2)C(=O)O)NC(=O)[C@H](CCCCN)NC(=O)[C@H](C)NC(=O)[C@@H]2CCCN2C1=O [CH32] (H-CGGAATYSIPAKCF-OH; disulfide 1-13; N-terminus and C-terminus assumed)
